Laboratory results from US20130022635A1, “Expression Modulator For Clock Gene Bmal” (SHISEIDO COMPANY, LTD., priority 2010, published 2013).

How the values were obtained:
Bmal1 gene = Bmal1 gene expression (RT-PCR, relative to RPLP0) in cultured human skin fibroblastic cells; format: cell-based; settings: expression at 2 and 16 hours after stimulation
Description: As the cultured human fibroblastic cells, fibroblastic cells from normal human skin were purchased (Cell Application, Inc.) and used in the experiments. They were inoculated in DMEM medium supplemented with 10% FBS, 20 mM HEPES, Glutamax and antibacterial agents and cultured at 37° C. in 5% CO2. On the 6th day of culture, 50 ng/mL of cortisol or 10 μM of forskolin was added, and the samples were harvested at various times after time 0, which was defined as the time immediately after the addition of cortisol or forskolin. RNA was extracted from the cells with a commercially available RNA extraction kit, and the amounts of expression of the intended genes were measured by RT-PCR technology using commercially available PCR primers (Perfect Real Time Primer, Takara Bio). As for clock genes, amounts of expression of Period (represented by Period1) and Bmal1, which are involved in the core system, were determined. Similarly, the amounts of expression of a housekeeping gene RPLP0 were quantified and used as an internal standard to calculate the relative expression of the intended genes to RPLP0. […] Test substances were evaluated for the expression modulating effect on a Bmal gene based on the amount of gene expression at 16 hours after stimulation. […]

Period1 gene = Period1 gene expression in cultured skin fibroblastic cells; format: cell-based, human
Description: As the cultured human fibroblastic cells, fibroblastic cells from normal human skin were purchased (Cell Application, Inc.) and used in the experiments. They were inoculated in DMEM medium supplemented with 10% FBS, 20 mM HEPES, Glutamax and antibacterial agents and cultured at 37° C. in 5% CO2. On the 6th day of culture, 50 ng/mL of cortisol or 10 μM of forskolin was added, and the samples were harvested at various times after time 0, which was defined as the time immediately after the addition of cortisol or forskolin. RNA was extracted from the cells with a commercially available RNA extraction kit, and the amounts of expression of the intended genes were measured by RT-PCR technology using commercially available PCR primers (Perfect Real Time Primer, Takara Bio). As for clock genes, amounts of expression of Period (represented by Period1) and Bmal1, which are involved in the core system, were determined. Similarly, the amounts of expression of a housekeeping gene RPLP0 were quantified and used as an internal standard to calculate the relative expression of the intended genes to RPLP0. […]

SMILES	Induction of Bmal1 expression rhythm and increase of Bmal1 gene expression (in words) (Bmal1 gene)	Induction of Period gene expression rhythm or promotion of its expression (in words) (Period1 gene)
C[C@]12CCC(=O)C=C1CC[C@@H]1[C@@H]2[C@@H](O)C[C@@]2(C)[C@H]1CC[C@]2(O)C(=O)CO [cortisol]	significantly increase amounts of gene expression of Bmal1	
C=C1CC/C=C(\C)CC[C@@H]2[C@@H]1CC2(C)C [beta-Caryophyllene]		can induce expression rhythm of a Period gene or promote its expression
